“And” between values parts separate entries of the source, which are not always exact repeats. Equal entries are not always repeated. Toxic doses and inconclusive results are not listed. Cut-off read from the data, not from the text of the source: active = T/C of 150% or more; inactive = T/C below 125%.
Tested on: L1210 leukemia ip in BDF1 mice, survival T/C
Assay: NCI In Vivo Anticancer Drug Screen. Data for tumor model L1210 Leukemia (intraperitoneal) in B6D2F1 (BDF1) mice
Conditions: endpoint: mean survival time, higher = longer survival
How it was run: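 Tumor was transplanted into mice, which were then dosed with test compound or vehicle alone. Survival was recorded for each group, and the treated figure was expressed relative to the control figure.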

[1] = dose: 12.5 mg/kg/injection, schedule: Q01DX009 (ip), vehicle: saline
[2] = dose: 25.0 mg/kg/injection, schedule: Q01DX009 (ip), vehicle: saline
[3] = dose: 50.0 mg/kg/injection, schedule: Q01DX009 (ip), vehicle: saline
[4] = dose: 400.0 mg/kg/injection, schedule: Q01DX001 (ip), vehicle: saline
[5] = dose: 100.0 mg/kg/injection, schedule: Q04DX003 (ip), vehicle: saline
[6] = dose: 200.0 mg/kg/injection, schedule: Q04DX003 (ip), vehicle: saline
[7] = dose: 400.0 mg/kg/injection, schedule: Q04DX003 (ip), vehicle: saline
[8] = dose: 100.0 mg/kg/injection, schedule: Q01DX001 (ip), vehicle: saline
[9] = dose: 200.0 mg/kg/injection, schedule: Q01DX001 (ip), vehicle: saline
[10] = dose: 100.0 mg/kg/injection, schedule: Q04DX003 (ip), vehicle: saline with Tween-80
[11] = dose: 200.0 mg/kg/injection, schedule: Q04DX003 (ip), vehicle: saline with Tween-80
[12] = dose: 400.0 mg/kg/injection, schedule: Q04DX003 (ip), vehicle: saline with Tween-80
[13] = dose: 100.0 mg/kg/injection, schedule: Q01DX009 (ip), vehicle: Klucel (hydroxypropylcellulose) (HPC)
[14] = dose: 100.0 mg/kg/injection, schedule: Q04DX003 (ip), vehicle: Klucel (hydroxypropylcellulose) (HPC)
[15] = dose: 200.0 mg/kg/injection, schedule: Q01DX009 (ip), vehicle: Klucel (hydroxypropylcellulose) (HPC)
[16] = dose: 200.0 mg/kg/injection, schedule: Q04DX003 (ip), vehicle: Klucel (hydroxypropylcellulose) (HPC)
[17] = dose: 400.0 mg/kg/injection, schedule: Q04DX003 (ip), vehicle: Klucel (hydroxypropylcellulose) (HPC)
[18] = dose: 100.0 mg/kg/injection, schedule: Q01DX009 (ip), vehicle: saline
[19] = dose: 200.0 mg/kg/injection, schedule: Q01DX009 (ip), vehicle: saline
[20] = dose: 100.0 mg/kg/injection, schedule: Q01DX001 (ip), vehicle: carboxymethylcellulose (CMC)
[21] = dose: 200.0 mg/kg/injection, schedule: Q01DX001 (ip), vehicle: carboxymethylcellulose (CMC)
[22] = dose: 400.0 mg/kg/injection, schedule: Q01DX001 (ip), vehicle: carboxymethylcellulose (CMC)
[23] = dose: 400.0 mg/kg/injection, schedule: Q01DX009 (ip), vehicle: Klucel (hydroxypropylcellulose) (HPC)

Measured: T/C

Fc1cccc(CSc2ncnc3nc[nH]c23)c1
inactive: [1] 104 % of control | [2] 119 % of control | [3] 120 % of control | dose: 175.0 mg/kg/injection, schedule: Q01DX001 (ip), vehicle: saline 105 % of control and 116 % of control | dose: 265.0 mg/kg/injection, schedule: Q01DX001 (ip), vehicle: saline 115 % of control | [4] 119 % of control

O=C(O)c1cc(/C=C/c2ccccc2)ccc1[N+](=O)[O-]
inactive: [5] 103 % of control | [6] 97 % of control | [7] 100 % of control

C1=CCNCC1
inactive: [8] 101 % of control | [9] 98 % of control | [4] 103 % of control

O=C1OCCN1c1ccc(S(=O)(=O)c2ccc(N3CCOC3=O)cc2)cc1
inactive: dose: 100.0 mg/kg/injection, schedule: Q01DX009 (ip), vehicle: saline with Tween-80 98 % of control | [10] 102 % of control | dose: 200.0 mg/kg/injection, schedule: Q01DX009 (ip), vehicle: saline with Tween-80 93 % of control | [11] 102 % of control | dose: 400.0 mg/kg/injection, schedule: Q01DX009 (ip), vehicle: saline with Tween-80 95 % of control | [12] 96 % of control

Cc1cc(OC(=O)Nc2cccc(Cl)c2)ccc1[N+](=O)[O-]
inactive: [13] 101 % of control | [14] 90 % of control | [15] 101 % of control | [16] 95 % of control | [17] 90 % of control

C1CCC(=[N+]2CCCC2)CC1
inactive: [18] 93 % of control | [5] 106 % of control | [19] 101 % of control | [6] 104 % of control | dose: 400.0 mg/kg/injection, schedule: Q01DX009 (ip), vehicle: saline 88 % of control | [7] 102 % of control

O=C(O)c1cc(CBr)cc(CBr)c1
inactive: dose: 3.13 mg/kg/injection, schedule: Q01DX009 (ip), vehicle: saline with Tween-80 97 % of control | dose: 6.25 mg/kg/injection, schedule: Q01DX001 (ip), vehicle: saline with Tween-80 102 % of control | dose: 6.25 mg/kg/injection, schedule: Q01DX009 (ip), vehicle: saline with Tween-80 101 % of control | dose: 12.5 mg/kg/injection, schedule: Q01DX001 (ip), vehicle: saline with Tween-80 113 % of control

Nc1cccc2c1/C(=N/O)c1ccccc1-2
inactive: [20] 98 % of control | [21] 100 % of control | [22] 98 % of control

Cc1ccc(S(=O)(=O)O)cc1
inactive: [1] 101 % of control | [2] 98 % of control | [3] 98 % of control | [18] 97 % of control | dose: 100.0 mg/kg/injection, schedule: Q04DX002 (ip), vehicle: saline 97 % of control | [5] 102 % of control | [19] 96 % of control | dose: 200.0 mg/kg/injection, schedule: Q04DX002 (ip), vehicle: saline 101 % of control | dose: 400.0 mg/kg/injection, schedule: Q04DX002 (ip), vehicle: saline 108 % of control

O=C(c1cccc2ccccc12)N(c1ccccc1)c1ccccc1
inactive: [14] 103 % of control

CCOC(=O)c1cnc(SC)nc1Nc1ccccc1
inactive: [10] 94 % of control | [11] 100 % of control | [12] 86 % of control

COc1cc2ccc3c(c2cc1OC)C=NCC3
inactive: dose: 1.56 mg/kg/injection, schedule: Q04DX003 (ip), vehicle: saline 107 % of control | dose: 3.13 mg/kg/injection, schedule: Q01DX009 (ip), vehicle: saline 109 % of control | dose: 3.13 mg/kg/injection, schedule: Q04DX003 (ip), vehicle: saline 102 % of control | dose: 6.25 mg/kg/injection, schedule: Q01DX009 (ip), vehicle: saline 105 % of control | dose: 6.25 mg/kg/injection, schedule: Q04DX003 (ip), vehicle: saline 97 % of control | dose: 12.5 mg/kg/injection, schedule: Q04DX003 (ip), vehicle: saline 87 % of control

O=[N+]([O-])c1ccc2c(c1)C(C(Cl)(Cl)Cl)OC(C(Cl)(Cl)Cl)O2 (stereo not drawn)
inactive: [13] 95 % of control | [14] 96 % of control | [15] 95 % of control | [16] 93 % of control | [23] 95 % of control | [17] 95 % of control

OCC1(CO)CCC=CO1
inactive: dose: 50.0 mg/kg/injection, schedule: Q01DX001 (ip), vehicle: carboxymethylcellulose (CMC) 113 % of control | [20] 100 % of control | [21] 100 % of control | [22] 97 % of control

CSc1ccc(NC(=O)Nc2cccc(C(C)=O)c2)cc1
inactive: [13] 97 % of control | [15] 94 % of control | [23] 91 % of control

CC(=O)Nc1cccc(C(C)=O)c1[N+](=O)[O-]
inactive: [10] 100 % of control | [11] 94 % of control | [12] 100 % of control

O=C(Nc1ccc(C(=O)O)cc1)Nc1cc(C(F)(F)F)ccc1Cl
inactive: [20] 93 % of control | dose: 100.0 mg/kg/injection, schedule: Q01DX009 (ip), vehicle: carboxymethylcellulose (CMC) 95 % of control and 110 % of control | dose: 100.0 mg/kg/injection, schedule: Q04DX002 (ip), vehicle: carboxymethylcellulose (CMC) 95 % of control and 97 % of control | dose: 100.0 mg/kg/injection, schedule: Q04DX003 (ip), vehicle: carboxymethylcellulose (CMC) 94 % of control | [21] 93 % of control | dose: 200.0 mg/kg/injection, schedule: Q01DX009 (ip), vehicle: carboxymethylcellulose (CMC) 100 % of control and 90 % of control | dose: 200.0 mg/kg/injection, schedule: Q04DX002 (ip), vehicle: carboxymethylcellulose (CMC) 93 % of control and 97 % of control | dose: 200.0 mg/kg/injection, schedule: Q04DX003 (ip), vehicle: carboxymethylcellulose (CMC) 97 % of control | [22] 93 % of control | dose: 400.0 mg/kg/injection, schedule: Q01DX009 (ip), vehicle: carboxymethylcellulose (CMC) 92 % of control | dose: 400.0 mg/kg/injection, schedule: Q04DX002 (ip), vehicle: carboxymethylcellulose (CMC) 96 % of control and 90 % of control | dose: 400.0 mg/kg/injection, schedule: Q04DX003 (ip), vehicle: carboxymethylcellulose (CMC) 96 % of control

Cc1no[n+]([O-])c1[N+](=O)[O-]
inactive: dose: 5.0 mg/kg/injection, schedule: Q01DX009 (ip), vehicle: saline 100 % of control | dose: 10.0 mg/kg/injection, schedule: Q01DX009 (ip), vehicle: saline 101 % of control | dose: 20.0 mg/kg/injection, schedule: Q01DX009 (ip), vehicle: saline 102 % of control

CSCCC(O)C(=O)O (stereo not drawn)
inactive: [8] 101 % of control | [9] 95 % of control | [4] 101 % of control

CC(C)CCC[C@@H](C)[C@H]1CC[C@H]2[C@@H]3CC=C4C(C)(C)C(=O)CC[C@]4(C)[C@H]3CC[C@]12C
inactive: dose: 100.0 mg/kg/injection, schedule: Q01DX001 (sc), vehicle: steriod suspending solution 97 % of control | dose: 200.0 mg/kg/injection, schedule: Q01DX001 (sc), vehicle: steriod suspending solution 98 % of control | dose: 400.0 mg/kg/injection, schedule: Q01DX001 (sc), vehicle: steriod suspending solution 97 % of control

CC(C)/C=N/NC(N)=S
inactive: dose: 3.13 mg/kg/injection, schedule: Q01DX001 (ip), vehicle: Klucel (hydroxypropylcellulose) (HPC) 102 % of control | dose: 6.25 mg/kg/injection, schedule: Q01DX001 (ip), vehicle: Klucel (hydroxypropylcellulose) (HPC) 118 % of control | dose: 12.5 mg/kg/injection, schedule: Q01DX001 (ip), vehicle: Klucel (hydroxypropylcellulose) (HPC) 99 % of control and 102 % of control

COc1cc(C(=O)N2CCN(Cc3ccccc3)CC2)cc(OC)c1OC
inactive: [14] 93 % of control | [16] 107 % of control | [17] 93 % of control
